Data taken from patent US11807644B2 (PMV Pharmaceuticals, Inc., priority 2020, dated 2023).

Each compound was assayed against T1, recombinant His-tag Y220C p53 DBD protein (Homo sapiens, UniProt P04637, Y220C) (assay: In vitro DNA binding activity assay (TR-FRET): binding of His-tag Y220C p53 DBD to biotin-labeled consensus DNA). Settings: SC150 = concentration to increase DNA binding by […], His-tag Y220C p53 DBD, biotin-labeled consensus DNA.
T1 construct: recombinant His-tag Y220C p53 DBD protein (amino acids #˜94-312)
Format: biochemical

| Structure (SMILES) | Y220C SC150 (μM) |
| --- | --- |
| CN1CC[C@@H](F)[C@@H](Nc2cccc3c2cc(-c2noc(CNC(=O)c4ccn(C(C)(C)C)c4)n2)n3CC(F)(F)F)C1 [Compound 415B, 1-tert-butyl-N-{[3-(4-{[(3S,4R)-4-fluoro-1-methylpiperidin-3-yl]amino}-1-(2,2,2-trifluoroethyl)-1H-indol-2-yl)-1,2,4-oxadiazol-5-yl]methyl}-1H-pyrrole-3-carboxamide] | * (* = 0 μM ≤ SC150 < 0.1 μM) |
| CC(C)c1nc(C(=O)NCc2nc(-c3cc4c(N[C@@H]5CCN(C)C[C@@H]5F)cccc4n3CC(F)(F)F)no2)cs1 [Compound 434B, N-{[3-(4-{[(3S,4R)-3-fluoro-1-methylpiperidin-4-yl]amino}-1-(2,2,2-trifluoroethyl)-1H-indol-2-yl)-1,2,4-oxadiazol-5-yl]methyl}-2-(propan-2-yl)-1,3-thiazole-4-carboxamide] | * (* = 0 μM ≤ SC150 < 0.1 μM) |
| CCC1(C(=O)NCc2nnc(-c3cc4c(NC5CCN(C)CC5)cccc4n3CC(F)(F)F)s2)CC1 [Compound 74B, 1-ethyl-N-[(5-{4-[(1-methylpiperidin-4-yl)amino]-1-(2,2,2-trifluoroethyl)-1H-indol-2-yl}-1,3,4-thiadiazol-2-yl)methyl]cyclopropane-1-carboxamide] | ** (** = 0.1 μM ≤ SC150 < 0.5 μM) |
| CNc1cc(-c2cc3c(NC4CCN(C)CC4)cccc3n2CC(F)(F)F)n[nH]1 [Compound 23B, 2-[5-(methylamino)-1H-pyrazol-3-yl]-N-(1-methylpiperidin-4-yl)-1-(2,2,2-trifluoroethyl)-1H-indol-4-amine] | **** (**** = 1 μM ≤ SC150 < 10 μM) |
| CC(C)Cn1ccc(C(=O)NCc2nc(-c3cc4c(N[C@@H]5CCN(C)C[C@@H]5F)cccc4n3CC(F)(F)F)no2)c1 [Compound 240B, N-{[3-(4-{[(3S,4R)-3-fluoro-1-methylpiperidin-4-yl]amino}-1-(2,2,2-trifluoroethyl)-1H-indol-2-yl)-1,2,4-oxadiazol-5-yl]methyl}-1-(2-methylpropyl)-1H-pyrrole-3-carboxamide] | * (* = 0 μM ≤ SC150 < 0.1 μM) |
| Cc1cscc1C(=O)NCc1nc(-c2cc3c(N[C@@H]4CCN(C)C[C@@H]4F)cccc3n2CC(F)(F)F)no1 [Compound 209B, N-{[3-(4-{[(3S,4R)-3-fluoro-1-methylpiperidin-4-yl]amino}-1-(2,2,2-trifluoroethyl)-1H-indol-2-yl)-1,2,4-oxadiazol-5-yl]methyl}-4-methylthiophene-3-carboxamide] | * (* = 0 μM ≤ SC150 < 0.1 μM) |
| CN1CC[C@@H](Nc2cccc3c2cc(-c2noc(CNC(=O)C4CCC4)n2)n3CC(F)(F)F)[C@@H](F)C1 [Compound 222B, N-{[3-(4-{[(3S,4R)-3-fluoro-1-methylpiperidin-4-yl]amino}-1-(2,2,2-trifluoroethyl)-1H-indol-2-yl)-1,2,4-oxadiazol-5-yl]methyl}cyclobutanecarboxamide] | * (* = 0 μM ≤ SC150 < 0.1 μM) |
| Cc1c[nH]c2cc(C(=O)NCc3nc(-c4cc5c(N[C@@H]6CCN(C)C[C@@H]6F)cccc5n4CC(F)(F)F)no3)ccc12 [Compound 274B, N-{[3-(4-{[(3S,4R)-3-fluoro-1-methylpiperidin-4-yl]amino}-1-(2,2,2-trifluoroethyl)-1H-indol-2-yl)-1,2,4-oxadiazol-5-yl]methyl}-3-methyl-1H-indole-6-carboxamide] | * (* = 0 μM ≤ SC150 < 0.1 μM) |
| CN1CC[C@@H](Nc2cccc3c2cc(-c2noc(CNC(=O)c4ccncc4)n2)n3CC(F)(F)F)[C@@H](F)C1 [Compound 200B, N-{[3-(4-{[(3S,4R)-3-fluoro-1-methylpiperidin-4-yl]amino}-1-(2,2,2-trifluoroethyl)-1H-indol-2-yl)-1,2,4-oxadiazol-5-yl]methyl}pyridine-4-carboxamide] | * (* = 0 μM ≤ SC150 < 0.1 μM) |
| CN1CC[C@@H](Nc2cccc3c2cc(-c2noc(CNC(=O)c4cnn([C@H]5CCC[C@@H]5F)c4)n2)n3CC(F)(F)F)[C@@H](F)C1 (relative stereo) [Compound 395B] | * (* = 0 μM ≤ SC150 < 0.1 μM) |
| CC(C)(C)n1ccc(C(=O)NCc2nc(-c3cc4c(N[C@@H]5CCOC[C@@H]5F)cccc4n3CC(F)(F)F)no2)c1 [Compound 493B, 1-tert-butyl-N-{[3-(4-{[(3R,4R)-3-fluorooxan-4-yl]amino}-1-(2,2,2-trifluoroethyl)-1H-indol-2-yl)-1,2,4-oxadiazol-5-yl]methyl}-1H-pyrrole-3-carboxamide] | * (* = 0 μM ≤ SC150 < 0.1 μM) |
| CC(C)N1CC[C@@H](Nc2cccc3c2cc(-c2noc(CNC(=O)c4ccn(C(C)(C)C)c4)n2)n3CC(F)(F)F)[C@@H](F)C1 [Compound 317B, 1-tert-butyl-N-{[3-(4-{[(3S,4R)-3-fluoro-1-(propan-2-yl)piperidin-4-yl]amino}-1-(2,2,2-trifluoroethyl)-1H-indol-2-yl)-1,2,4-oxadiazol-5-yl]methyl}-1H-pyrrole-3-carboxamide] | * (* = 0 μM ≤ SC150 < 0.1 μM) |
| COCC1(c2ccc(C(=O)NCc3nc(-c4cc5c(N[C@@H]6CCN(C)C[C@@H]6F)cccc5n4CC(F)(F)F)no3)s2)CC1 [Compound 483B, N-{[3-(4-{[(3S,4R)-3-fluoro-1-methylpiperidin-4-yl]amino}-1-(2,2,2-trifluoroethyl)-1H-indol-2-yl)-1,2,4-oxadiazol-5-yl]methyl}-5-[1-(methoxymethyl)cyclopropyl]thiophene-2-carboxamide] | * (* = 0 μM ≤ SC150 < 0.1 μM) |
| CC(C)(C)n1cc(C(=O)NCc2nc(-c3cc4c(N[C@@H]5CCCC[C@@H]5F)cccc4n3CC(F)(F)F)no2)cn1 [Compound 331B, 1-tert-butyl-N-{[3-(4-{[(1R,2S)-2-fluorocyclohexyl]amino}-1-(2,2,2-trifluoroethyl)-1H-indol-2-yl)-1,2,4-oxadiazol-5-yl]methyl}-1H-pyrazole-4-carboxamide] | * (* = 0 μM ≤ SC150 < 0.1 μM) |
| CO[C@@]1(C)CC[C@H](n2ccc(C(=O)NCc3nc(-c4cc5c(N[C@@H]6CCN(C)C[C@@H]6F)cccc5n4CC(F)(F)F)no3)c2)C1 (racemic) [Compound 388B] | * (* = 0 μM ≤ SC150 < 0.1 μM) |
| COCC(C)(C)n1cc(C(=O)NCc2nc(-c3cc4c(N[C@H]5CCN(C(C)(C)C)C[C@@H]5F)cccc4n3CC(F)(F)F)no2)cn1 (racemic) [Compound 411B, N-{[3-(4-{[(3R,4R)-1-tert-butyl-3-fluoropiperidin-4-yl]amino}-1-(2,2,2-trifluoroethyl)-1H-indol-2-yl)-1,2,4-oxadiazol-5-yl]methyl}-1-(1-methoxy-2-methylpropan-2-yl)-1H-pyrazole-4-carboxamide] | * (* = 0 μM ≤ SC150 < 0.1 μM) |
| CN1CC[C@@H](Nc2cccc3c2cc(-c2nnc(CNC(=O)c4ccn(C(C)(C)C)c4)s2)n3CC(F)(F)F)[C@@H](F)C1 [Compound 286B, 1-tert-butyl-N-{[5-(4-{[(3S,4R)-3-fluoro-1-methylpiperidin-4-yl]amino}-1-(2,2,2-trifluoroethyl)-1H-indol-2-yl)-1,3,4-thiadiazol-2-yl]methyl}-1H-pyrrole-3-carboxamide] | * (* = 0 μM ≤ SC150 < 0.1 μM) |
| CN1CC[C@@H](Nc2cccc3c2cc(-c2noc(CNS(=O)(=O)c4ccccc4)n2)n3CC(F)(F)F)[C@@H](F)C1 [Compound 221B, N-{[3-(4-{[(3S,4R)-3-fluoro-1-methylpiperidin-4-yl]amino}-1-(2,2,2-trifluoroethyl)-1H-indol-2-yl)-1,2,4-oxadiazol-5-yl]methyl}benzenesulfonamide] | ** (** = 0.1 μM ≤ SC150 < 0.5 μM) |
| COCC1(n2ccc(C(=O)NCc3nc(-c4cc5c(N[C@H]6CCNC[C@H]6F)cccc5n4CC(F)(F)F)no3)c2)CC1 [Compound 476B, N-{[3-(4-{[(3R,4S)-3-fluoropiperidin-4-yl]amino}-1-(2,2,2-trifluoroethyl)-1H-indol-2-yl)-1,2,4-oxadiazol-5-yl]methyl}-1-[1-(methoxymethyl)cyclopropyl]-1H-pyrrole-3-carboxamide] | * (* = 0 μM ≤ SC150 < 0.1 μM) |
| CN1CC[C@@H](Nc2cccc3c2cc(-c2noc(CNC(=O)c4cn5ccccc5n4)n2)n3CC(F)(F)F)[C@@H](F)C1 [Compound 217B, N-{[3-(4-{[(3S,4R)-3-fluoro-1-methylpiperidin-4-yl]amino}-1-(2,2,2-trifluoroethyl)-1H-indol-2-yl)-1,2,4-oxadiazol-5-yl]methyl}imidazo[1,2-a]pyridine-2-carboxamide] | * (* = 0 μM ≤ SC150 < 0.1 μM) |
| O=C(NCc1nnc(-c2cc3c(N[C@@H]4CCNC[C@@H]4F)cccc3n2CC(F)(F)F)s1)OCc1ccccc1 [Compound 70B, benzyl N-{[5-(4-{[(3S,4R)-3-fluoropiperidin-4-yl]amino}-1-(2,2,2-trifluoroethyl)-1H-indol-2-yl)-1,3,4-thiadiazol-2-yl]methyl}carbamate] | * (* = 0 μM ≤ SC150 < 0.1 μM) |
| CN1CC[C@H](Nc2cccc3c2cc(-c2nnc(CNC(=O)C4CC4)s2)n3CC(F)(F)F)[C@H](F)C1 [Compound 25B, N-{[5-(4-{[(3R,4S)-3-fluoro-1-methylpiperidin-4-yl]amino}-1-(2,2,2-trifluoroethyl)-1H-indol-2-yl)-1,3,4-thiadiazol-2-yl]methyl}cyclopropanecarboxamide] | ** (** = 0.1 μM ≤ SC150 < 0.5 μM) |
| CCN1CCC(Nc2cccc3c2cc(-c2noc(CNC(=O)C4CC4)n2)n3CC(F)(F)F)CC1 [Compound 168B, N-[(3-{4-[(1-ethylpiperidin-4-yl)amino]-1-(2,2,2-trifluoroethyl)-1H-indol-2-yl}-1,2,4-oxadiazol-5-yl)methyl]cyclopropanecarboxamide] | * (* = 0 μM ≤ SC150 < 0.1 μM) |
| CN1CC[C@@H](Nc2cccc3c2cc(-c2nnc(CNC(=O)C4CCC4)s2)n3CC(F)(F)F)[C@@H](F)C1 (racemic) [Compound 37B, (+/−)-N-{[5-(4-{[(3R,4S)-3-fluoro-1-methylpiperidin-4-yl]amino}-1-(2,2,2-trifluoroethyl)-1H-indol-2-yl)-1,3,4-thiadiazol-2-yl]methyl}cyclobutanecarboxamide] | ** (** = 0.1 μM ≤ SC150 < 0.5 μM) |
